From US8435970B2 (priority 2006, dated 2013)
≈ marks a conversion by molar mass, not a printed value. Where a name gives a salt, the structure may show the parent alone.

Tests used:
[1] = Gravimetric vapour sorption (GVS); assay type: physicochemical; conditions: for hygroscopic behaviour (GVS isotherm): 0 to 95% RH, 25° C.
Description: E. Gravimetric Vapour Sorption (GVS):
The sample size was ca. 10-25 mg. […] The sample was loaded and unloaded at room humidity and temperature (ca. 40% RH, 25° C.) and analysed afterwards by XRPD (using a Bruker AXS C2 GADDS system).

[2] = citrate buffer, pH 4.5, aqueous buffer
OVCAR-3 tumour cells = conditions: concentrations of 50 and 100 microM; PKB amplified; cited from earlier work
[3] = system: Aurora (Histone H3 phosphorylation); test: Western blotting assay of downstream substrate phosphorylation; assay type: cell-based; conditions: western blot; concentration of inhibition
[4] = system: primary human mammary epithelial cells; test: In vitro studies with normal cells; conditions: 24 h compound treatment, cf. tumor cells
[5] = system: human tumour derived cell lines engrafted sub-cutaneously; conditions: nude mice, sub-cutaneous human tumour xenografts

O=C(Nc1c[nH]nc1-c1nc2cc(CN3CCOCC3)ccc2[nH]1)NC1CC1 [free base]
hygroscopic behaviour (GVS isotherm) ([1]; listed as Free Base): hygroscopic | sample weight difference between 0% R.H and 95% R.H. ([1]; GVS): approximately 9% | solubility [2]: ~80 mg/mL (≈ 210 mM)

O=S(=O)(NCCNCC=C(c1ccccc1)c1ccccc1)c1cccc2cnccc12 [NL-71-101]
apoptosis induction (OVCAR-3 tumour cells): induced apoptosis

O=C(Nc1c[nH]nc1-c1nc2cc(CN3CCOCC3)ccc2[nH]1)NC1CC1
Inhibition of Histone H3 phosphorylation (Aurora) [3]: 10 to 30 nM

O=C(Nc1c[nH]nc1-c1nc2cc(CN3CCOCC3)ccc2[nH]1)NC1CC1 [L-lactate salt]
hygroscopic behaviour (GVS isotherm) [1]: does not display hygroscopic behaviour

O=C(Nc1c[nH]nc1-c1nc2cc(CN3CCOCC3)ccc2[nH]1)NC1CC1 [compound of formula (I)]
effect on normal checkpoint competent cells [4]: reversible G2/M arrest | anti-tumour action as a single agent [5]: anti-tumour action
